According to patent US20200221654A9, “APPLICATIONS OF ROOT-ADMINISTERED CHEMICAL HYBRIDIZING AGENTS IN PLANT BREEDING” (BAYER CROPSCIENCE AKTIENGESELLSCHAFT, priority 2016, published 2020):

What was measured:
Format in all cases: in vivo
[1] = tested on: Wheat plants of the wheat varieties JB Asano and Apache; experiment: Male sterility after a single root application (watering) of Clofencet to potted wheat plants, seed set of bagged ears (Example 1); conditions: for Average sterility relative to control: 1 root treatment, Zadok stage 31
Experimental: Wheat plants of the wheat varieties JB Asano and Apache were grown in the greenhouse in standard planting pots, bottom perforated, edge length 12 cm, height 13 cm, with one plant per pot. Twelve pots were placed into a plastic tray, bottom non-perforated with fleece inlay (e.g. available at Hermann Meyer KG unter article no. 44 54 11). Standard greenhouse growing substrate soil (bedding substrate 1 of Klasmann-Deilmann GmbH) was filled into the pot ca. 2 cm below edge. Plants were grown under standard growing conditions with respect to fertilizer, watering, disease and light management. Each plant was reduced to 4 tillers. The necessary active amount of Clofencet per plant was calculated according to the standard foliar spray application protocol of 5.42 kg per hectare assuming 400 ears per square meter taking the higher tiller number of potted plants into account (average number of ears per plant in the field is typically 1.15 but it was 4 in our potted plants, so the dose rate for root application per plant, i.e. per pot, was adjusted upward). At Zadoks growth stage 31 the plants were watered with 0.0 mg (control), 10.84 mg, 16.26 mg and 21.68 mg, respectively, of Clofencet in 200 ml tap water per pot. Each treatment was repeated on 12 plants, whereas the highest concentration was repeated on 24 plants. Before flowering time (Zadoks stage 57 of control group) ears were bagged to avoid unwanted cross-pollination. Bags were removed at beginning of grain filling (Zadoks stage 75 and higher), seed set was determined at kernel ripeness of the control group. When ears carried mature seeds, the ears were threshed with a hand-threshing device (Baumann Dreschhexe #4.701.200) and the kernels per plant were counted. A wheat ear is called completely sterile (=100% sterility) when no kernel developed on a bagged ear. The average number of grains per plant of the control plants was set to 0% sterility.

[2] = tested on: Wheat plants of the wheat varieties JB Asano and Apache; experiment: Female fertility: seed set of Clofencet-treated male sterile plants after pollination with pollen from an untreated control plant (Example 3); conditions: for Average seed set of Clofencet treated plants after pollination with wheat pollen (rel. to control): 1 root treatment, Zadok stage 31
Description: Male sterile plants generated by Clofencet treatment as described in Example 1 were used. Before single bagging the 4 ears of each plant at Zadoks stages 55-59, flowers were clipped to facilitate pollination. At flowering time (spikelets wide open) three male-sterile ears (no pollen in the transparent bags) were pollinated with pollen from an untreated control plant of the same wheat variety. One sterile ear was not pollinated to cross check the efficacy of the Clofencet treatment. Bags were removed at beginning of grain filling (Zadoks stage 75 and higher), seed set was determined at kernel maturity. If ears had set seed, the ears were threshed with a hand-threshing device (Baumann Dreschhexe #4.701.200) and the kernels per plant were counted. The average number of grains per plant of the control plants was set to 100% seed set.

[3] = tested on: Wheat plants of the wheat varieties JB Asano and KWS Target; experiment: Male sterility after weekly root application (watering) of WL84811 to potted wheat plants, seed set of bagged ears (Example 2); conditions: for Average sterility relative to control after CHA: 1.0 mg/plant WL84811 in 100 ml water per treatment, 11 weekly root treatments (total 11.0 mg/plant), Zadok stage 31 to 65
Experimental: Wheat plants of the wheat varieties JB Asano and KWS Target were grown in the greenhouse in standard planting pots, bottom perforated, edge length 12 cm, height 13 cm, with one plant per pot. Twelve pots were placed into a plastic tray, bottom non-perforated with fleece inlay. Sandy loam from the field was filled into the pots ca. 2 cm below edge. Plants were grown under standard growing conditions with respect to fertilizer, watering, disease and light management. Each plant per pot was reduced to 4 tillers. The treatment was watering each pot with 0.0 mg (control) or 1.0 mg WL84811 in 100 ml tap water per pot. Each treatment was repeated on 2 plants per variety, watering with the treatment was done once a week for 11 weeks starting at Zadoks growth stage 31 until growth stage 65 of the control group. Ears were bagged to avoid unwanted cross-pollination. Bags were removed at beginning of grain filling (Zadoks stage 75 and higher), seed set was determined at kernel maturity of the control group. When ears had set seed, the ears were threshed by hand and the kernels per plant were counted. A wheat ear is called completely sterile (=100% sterility) when no kernel was developed on a bagged ear. The average number of grains per plant of the control plants was set to 0% sterility.

[4] = variety Apache, 10.84 mg/plant Clofencet in 200 ml water
[5] = variety Apache, 16.26 mg/plant Clofencet in 200 ml water
[6] = variety Apache, 21.68 mg/plant Clofencet in 200 ml water
[7] = variety JB Asano, 10.84 mg/plant Clofencet in 200 ml water
[8] = variety JB Asano, 16.26 mg/plant Clofencet in 200 ml water
[9] = variety JB Asano, 21.68 mg/plant Clofencet in 200 ml water

In the case of CCc1c(C(=O)O)c(=O)cnn1-c1ccc(Cl)cc1 [Clofencet, 2-(4-chlorophenyl)-3-ethyl-2,5-dihydro-5-oxopyridazine-4-carboxylic acid], the “further effect on male sterility at higher doses (data not shown)” value ([1]; doses of active substance higher than 21.68 mg per plant) is reported as “do not have any further positive effect”, the “male sterility” value ([1]; single root application dose of 10.84 mg per plant with four tillers at growth stage 31) is reported as “satisfying amount of average male sterility” and the “male sterility” value ([1]; single root application of 16.26 mg per plant at growth stage 31) is reported as ~100%. For the same compound, the “Average sterility relative to control” value [1, 4] was 91.88%, the “Average sterility relative to control” value [1, 5] was 98.69% and the “Average sterility relative to control” value [1, 6] was 99.64%. The “Average sterility relative to control” value [1, 7] was 94.72%, the “Average sterility relative to control” value [1, 8] was 99.96% and the “Average sterility relative to control” value [1, 9] was 98.65%. The “seed set of bagged plants” value ([1]; watered once with an active dose of 16.26 mg or more in Zadoks stage 31) was “Almost no plants”, the “female fertility of the treated plants” value ([2]; root treatment once, pollinated with pollen of untreated control plants) was “does not harm the female fertility” and the “seed set compared to the control with 100% seed set” value ([2]; variety Apache) was “even seems to enhance seed set”. The “Average seed set of Clofencet treated plants after pollination with wheat pollen (rel. to control)” value (“Average seed set” for short) [2, 4] was 101%, the “Average seed set” value [2, 5] was 115% and the “Average seed set” value [2, 6] was 107%. For the same compound, the “Average seed set” value [2, 7] was 98%, the “Average seed set” value [2, 8] was 94% and the “Average seed set” value [2, 9] was 75%.

With O=C(O)C1CNC1 [WL84811, azetidine-3-carboxylic acid] the “generation of male sterility” value ([3]; regular weekly watering with 1.0 mg, root treatment) was “very effective to generate male sterility”, the “Average sterility relative to control after CHA” value ([3]; variety JB Asano) was 100% and the “Average sterility relative to control after CHA” value ([3]; variety KWS Target) was 100%. The “seed set of treated plants bagged before flowering” value ([3]; weekly 1.0 mg root treatment, bagged before flowering) was “No plant”.
